According to patent publication US8580812B2, “Heteroaryl amide analogues as P2X7 antagonists” (H. Lundbeck A/S, priority 2007, dated 2013):
pIC50: −log10 of the molar value.

Molecular target: T1, P2X7 (Homo sapiens, UniProt Q99572)
T1 construct: host or cells: SH-SY5Y
T1 sequence (Q99572 1-595): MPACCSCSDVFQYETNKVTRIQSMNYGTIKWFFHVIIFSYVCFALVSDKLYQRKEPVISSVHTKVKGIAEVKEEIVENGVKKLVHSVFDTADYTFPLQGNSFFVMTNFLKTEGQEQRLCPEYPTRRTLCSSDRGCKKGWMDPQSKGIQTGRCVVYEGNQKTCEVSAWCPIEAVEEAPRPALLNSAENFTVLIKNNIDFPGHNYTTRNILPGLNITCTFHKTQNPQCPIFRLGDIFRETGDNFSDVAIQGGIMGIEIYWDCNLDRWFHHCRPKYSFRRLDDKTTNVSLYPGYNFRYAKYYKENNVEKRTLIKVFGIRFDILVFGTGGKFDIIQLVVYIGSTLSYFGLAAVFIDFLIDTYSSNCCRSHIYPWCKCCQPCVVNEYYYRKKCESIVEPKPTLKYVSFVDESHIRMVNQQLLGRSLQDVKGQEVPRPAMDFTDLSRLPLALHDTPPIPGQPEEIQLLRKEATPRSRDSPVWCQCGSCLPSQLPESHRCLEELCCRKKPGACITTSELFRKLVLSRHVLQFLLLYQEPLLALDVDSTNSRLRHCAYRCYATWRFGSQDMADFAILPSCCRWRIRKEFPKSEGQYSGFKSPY
Assay: High Throughput P2X7 Calcium Mobilization Assay (Example 4A), antagonist activity
Type: cell-based
Settings: SH-SY5Y cells, 50% decrease in fluorescence response of cells exposed to 80 μM BzATP
In short: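 SH-SY5Y cells loaded with Fluo-4 AM were preincubated 1 h at room temperature with compound (typically 1–2500 nM) in sucrose/HEPES buffer, pH 7.4, then challenged with 80 μM BzATP (final, about EC50). Peak fluorescence over 2 min gave percent inhibition relative to agonist-only wells, and IC50 came from a Hill-equation fit.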

Row | Molecule | pIC50
1 | CN(C(=O)c1cc2c(C(=O)NCC34CC5CC(CC(C5)C3)C4)cccn2n1)C1CCOCC1 [Compound 37, 4-N-(adamantan-1-ylmethyl)-2-N-methyl-2-N-(tetrahydro-2H-pyran-4-yl)pyrazolo[1,5-a]pyridine-2,4-dicarboxamide] | ≥ 5.70
2 | CN(CCF)C(=O)c1cc2c(C(=O)NCC34CC5CC(CC(C5)C3)C4)cccn2n1 [Compound 74, 4-N-(adamantan-1-ylmethyl)-2-N-(2-fluoroethyl)-2-N-methylpyrazolo[1,5-a]pyridine-2,4-dicarboxamide] | ≥ 5.70
3 | 2-{[(3R)-3- aminopyrrolidin-1- yl]carbonyl}-N-[4- methyl-2-(4- methylphenyl)pentyl] pyrazolo[1,5-a]pyridine- 4-carboxamide [Compound 73] | ≥ 5.70
4 | CCOC(=O)CNC(=O)c1cc2c(C(=O)NCC34CC5CC(CC(C5)C3)C4)cccn2n1 [Compound 41, ethyl N-({4-[(adamantan-1-ylmethyl)carbamoyl]pyrazolo[1,5-a]pyridin-2-yl}carbonyl)glycinate] | ≥ 5.70
5 | O=C(NCC12CC3CC(CC(C3)C1)C2)c1cccn2nc(CC3=NCCN3)cc12 [Compound 89, N-(adamantan-1-ylmethyl)-2-(4,5-dihydro-1H-imidazol-2-ylmethyl)pyrazolo[1,5-a]pyridine-4-carboxamide] | ≥ 5.70
6 | O=C(NCC12CC3CC(CC(C3)C1)C2)c1cccn2nc(C(Cc3ccccc3)C(=O)O)cc12 (stereo not shown) [Compound 103, 2-{4-[(adamantan-1-ylmethyl)carbamoyl]pyrazolo[1,5-a]pyridin-2-yl}-3-phenylpropanoic acid] | ≥ 5.70
7 | CC(C)CC(CNC(=O)c1cccn2nc(C(=O)N3CC[C@@H](N)C3)cc12)c1ccc(Cl)cc1 (stereo partly drawn) [Compound 71, 2-{[(3R)-3-aminopyrrolidin-1-yl]carbonyl}-N-[2-(4-chlorophenyl)-4-methylpentyl]pyrazolo [1,5-a]pyridine-4-carboxamide] | ≥ 5.70
8 | NC(=O)c1ccc(-c2cc3c(C(=O)NCC45CC6CC(CC(C6)C4)C5)cccn3c2)cc1 [Compound 112, N-(adamantan-1-ylmethyl)-2-(4-carbamoylphenyl) indolizine-8-carboxamide] | ≥ 5.70
9 | CN(C(=O)c1cc2c(C(=O)NCC34CC5CC(CC(C5)C3)C4)cccn2n1)c1ccncc1 [Compound 39, 4-N-(adamantan-1-ylmethyl)-2-N-methyl-2-N-pyridin-4-ylpyrazolo[1,5-a]pyridine-2,4-dicarboxamide] | ≥ 5.70
10 | CN(Cc1ccccn1)C(=O)c1cc2c(C(=O)NCC34CC5CC(CC(C5)C3)C4)cccn2n1 [Compound 50, 4-N-(adamantan-1-ylmethyl)-2-N-methyl-2-N-(pyridin-2-ylmethyl)pyrazolo[1,5-a]pyridine-2,4-dicarboxamide] | ≥ 5.70
11 | O=C(NCC1(c2ccc(Cl)cc2)CCCCC1)c1cccn2nc(C(=O)N3CCn4cncc4C3)cc12 [Compound 83, N-{[1-(4-chlorophenyl)cyclohex-yl]methyl}-2-(5,6-dihydroimidazo[1,5-a]pyrazin-7(8H)-ylcarbonyl)pyrazolo [1,5-a]pyridine-4-carboxamide] | ≥ 5.70
12 | O=C(NCC1(c2ccc(C(F)(F)F)cc2)CCCCC1)c1cccn2nc(C(=O)N3CCOCC3)cc12 [Compound 94, 2-(morpholin-4-ylcarbonyl)-N-({1-[4-(trifluoromethyl)phenyl]cyclohexyl}methyl) pyrazolo[1,5-a]pyridine-4-carboxamide] | ≥ 5.70
13 | CCN(CC)[C@@H]1CCN(C(=O)c2cc3c(C(=O)NCC45CC6CC(CC(C6)C4)C5)cccn3n2)C1 [Compound 31, N-(adamantan-1-ylmethyl)-2-{[(3R)-3-(diethylamino)pyrrolidin-1-yl]carbonyl}pyrazolo [1,5-a]pyridine-4-carboxamide] | ≥ 5.70
14 | CC(C)CC(CNC(=O)c1cccn2nc(C(=O)N3CCOCC3)cc12)c1ccc(Cl)cc1 (stereo not shown) [Compound 91, N-[2-(4-chlorophenyl)-4-methylpentyl]-2-(morpholin-4-ylcarbonyl)pyrazolo [1,5-a]pyridine-4-carboxamide] | ≥ 5.70

Other lines, results leading:

Row | pIC50 | Molecule
15 | ≥ 5.70 | CN(Cc1cccnc1)C(=O)c1cc2c(C(=O)NCC34CC5CC(CC(C5)C3)C4)cccn2n1 [Compound 21, 4-N-(adamantan-1-ylmethyl)-2-N-methyl-2-N-(pyridin-3-ylmethyl)pyrazolo[1,5-a]pyridine-2,4-dicarboxamide]
16 | ≥ 5.70 | COCCN(C)C(=O)c1cc2c(C(=O)NCC34CC5CC(CC(C5)C3)C4)cccn2n1 [Compound 18, 4-N-(adamantan-1-ylmethyl)-2-N-(2-methoxyethyl)-2-N-methylpyrazolo[1,5-a]pyridine-2,4-dicarboxamide]
17 | ≥ 5.70 | O=C(NCc1ccccn1)c1cc2c(C(=O)NCC34CC5CC(CC(C5)C3)C4)cccn2n1 [Compound 51, 4-N-(adamantan-1-ylmethyl)-2-N-(pyridin-2-ylmethyl)pyrazolo[1,5-a]pyridine-2,4-dicarboxamide]
18 | ≥ 5.70 | O=C(Cc1cc2c(C(=O)NCC34CC5CC(CC(C5)C3)C4)cccn2n1)NCC(F)F [Compound 60, N-(adamantan-1-ylmethyl)-2-{2-[(2,2-difluoroethyl)amino]-2-oxoethyl}pyrazolo[1,5-a]pyridine-4-carboxamide]
19 | ≥ 5.70 | CN[C@@H]1CCN(C(=O)c2cc3c(C(=O)NCC45CC6CC(CC(C6)C4)C5)cccn3n2)C1 [Compound 46, N-(adamantan-1-ylmethyl)-2-{[(3R)-3-(methylamino)pyrrolidin-1-yl]carbonyl}pyrazolo [1,5-a]pyridine-4-carboxamide]
20 | ≥ 5.70 | CN(Cc1ccc(F)cc1)Cc1cc2c(C(=O)NCC34CC5CC(CC(C5)C3)C4)cccn2n1 [Compound 70, N-(adamantan-1-ylmethyl)-2-{[(4-fluorobenzyl)(methyl)amino]methyl}pyrazolo [1,5-a]pyridine-4-carboxamide]
21 | ≥ 5.70 | CC(C)CC(CNC(=O)c1cccn2nc(C(=O)N3CCC[C@@H](N)C3)cc12)c1ccccc1 (stereo partly drawn) [Compound 43, 2-{[(3R)-3-aminopiperidin-1-yl]carbonyl}-N-(4-methyl-2-phenylpentyl)pyrazolo [1,5-a]pyridine-4-carboxamide]
22 | ≥ 5.70 | N[C@@H]1CCN(C(=O)c2cc3c(C(=O)NCC(CC4CCCCC4)c4ccccc4)cccn3n2)C1 (stereo partly drawn) [Compound 72, 2-{[(3R)-3-aminopyrrolidin-1-yl]carbonyl}-N-(3-cyclohexyl-2-phenylpropyl)pyrazolo [1,5-a]pyridine-4-carboxamide]
23 | ≥ 5.70 | CN(Cc1cc2c(C(=O)NCC34CC5CC(CC(C5)C3)C4)cccn2n1)Cc1ccccc1F [Compound 68, N-(adamantan-1-ylmethyl)-2-{[(2-fluorobenzyl)(methyl)amino]methyl}pyrazolo [1,5-a]pyridine-4-carboxamide]
24 | ≥ 5.70 | CN(CCF)C(=O)Cc1cc2c(C(=O)NCC34CC5CC(CC(C5)C3)C4)cccn2n1 [Compound 77, N-(adamantan-1-ylmethyl)-2-{2-[(2-fluoroethyl)(methyl)amino]-2-oxoethyl}pyrazolo[1,5-a]pyridine-4-carboxamide]
25 | ≥ 5.70 | CN(Cc1cnccn1)Cc1cc2c(C(=O)NCC34CC5CC(CC(C5)C3)C4)cccn2n1 [Compound 55, N-(adamantan-1-ylmethyl)-2-{[methyl(pyrazin-2-ylmethyl)amino]methyl} pyrazolo[1,5-a]pyridine-4-carboxamide]
26 | ≥ 5.70 | N[C@@H]1CCN(C(=O)c2cc3c(C(=O)NCC4(c5ccc(Cl)cc5)CCCCC4)cccn3n2)C1 [Compound 90, 2-{[(3R)-3-aminopyrrolidin-1-yl]carbonyl}-N-{[1-(4-chlorophenyl)cyclohex-yl]methyl}pyrazolo[1,5-a]pyridine-4-carboxamide]
27 | ≥ 5.70 | CC(C)CC(CNC(=O)c1cccn2nc(C(=O)N3CCn4cncc4C3)cc12)c1ccc(C(F)(F)F)cc1 (stereo not shown) [Compound 88, 2-(5,6-dihydroimidazo[1,5-a]pyrazin-7(8H)-ylcarbonyl)-N-{4-methyl-2-[4-(trifluoromethyl)phenyl]pentyl}pyrazolo[1,5-a]pyridine-4-carboxamide]
28 | ≥ 5.70 | CN(CC(F)(F)F)C(=O)Cc1cc2c(C(=O)NCC34CC5CC(CC(C5)C3)C4)cccn2n1 [Compound 79, N-(adamantan-1-ylmethyl)-2-{2-[methyl(2,2,2-trifluoroethyl)amino]-2-oxoethyl}pyrazolo[1,5-a]pyridine-4-carboxamide]
29 | ≥ 5.70 | O=C(NCC12CC3CC(CC(C3)C1)C2)c1cccn2nc(C(=O)N3CCn4cnnc4C3)cc12 [Compound 24, N-(adamantan-1-ylmethyl)-2-(5,6-dihydro[1,2,4]triazolo [4,3-a]pyrazin-7(8H)-ylcarbonyl)pyrazolo [1,5-a]pyridine-4-carboxamide]
30 | ≥ 5.70 | O=C(NCC(F)(F)F)c1cc2c(C(=O)NCC34CC5CC(CC(C5)C3)C4)cccn2n1 [Compound 64, 4-N-(adamantan-1-ylmethyl)-2-N-(2,2,2-trifluoroethyl)pyrazolo [1,5-a]pyridine-2,4-dicarboxamide]
31 | ≥ 5.70 | NC(=O)c1ccc(C(=O)c2ccc3c(C(=O)NCC45CC6CC(CC(C6)C4)C5)cccn23)cc1 [Compound 110, N-(adamantan-1-ylmethyl)-3-(4-carbamoylbenzoyl) indolizine-8-carboxamide]
